Measured values published in patent publication US20220096526A1, “METHODS AND COMPOSITIONS FOR THE TREATMENT AND PREVENTION OF OCULAR DISEASES AND CONDITIONS” (Tufts Medical Center, Inc., priority 2019, published 2022).

Tests used:
sorted splenic pDCs [1] = assay: NGF and CREB relative mRNA (qRT-PCR) in cultured sorted splenic pDCs; format: cell-based, mouse
Experimental: pDCs were isolated from DPE-GFP×RAG1^−/− and cDCs were purified from naïve WT C57BL/6 mice, respectively. DPE-GFP×RAG1^−/− mice underwent subcutaneous injection of 5×10^6 B16 murine Flt3L-secreting melanoma tumor cells. 10-14 days later, mice were euthanized; spleens were harvested, and mechanically disturbed using a 5 ml syringe plunger and were filtered through a […] cell strainer (BD Falcon). Next, after incubation with ice-cold ammonium chloride (ACK) lysis buffer (Biofluids, Rockville, Md.) for 1 minute to remove contaminating RBCs, cells were washed with PBS. GFP-tagged pDCs were sorted via Moflo Cell Sorter (Beckman Coulter, Brea, Calif.). For obtaining pDCs for co-culturing TGCs with different densities of pDCs, as well as for flow cytometry and presence of NGF mRNA on GFP-tagged splenic pDCs, and comparing the NGF mRNA content in pDCs and cDCs, naïve DPE-GFP×RAG1^−/− mice were used. cDCs were purified using CD11c MicroBeads (Miltenyi Biotec) according to the manufacturer's instruction, with a purity of more than 85%.
(§1) Isolated splenic pDCs were cultured in 48 well plates (200,000 cells/well) for 3 days with Ham's F-12 Nutrient Mix (Gibco, Carlsbad, Calif.) supplemented with 10% heat inactivated fetal bovine serum (FBS; Gemini Bioproducts, Woodland, Calif.), and 1% penicillin/streptomycin (Life Technologies, Carlsbad, Calif.). Cells were treated with 1, 5, and 10 μg/ml Imiquimod (InvivoGen, San Diego, Calif.) or PBS upon seeding. In another set of experiments, cells were pretreated with 10 μM SB 203580 (p38 MAP kinase inhibitor; Sigma-Aldrich) or PBS 1 hour prior to addition of 1 μg/ml Imiquimod (InvivoGen) or PBS. Cells were harvested for RNA or protein extraction 3 days after culture.
(§2) Corneal epithelium was removed with fine forceps following 30 minutes incubation with PBS containing 20 mM EDTA (Sigma-Aldrich) at 37° C. Next, 4-6 corneal stromas were pooled and lysed using BeadBug Microtube Homogenizer (Benchmark Scientific, Inc., Edison, N.J.). Next, RNA was isolated from the corneal stroma using RNeasy Plus Universal Mini kit (QIAGEN, Germantown, Md.). For isolating RNA from freshly sorted pDCs, purified cDCs, cultured pDCs, and cultured TGCs, RNeasy Plus Micro Kit (QIAGEN) was used. RNA yield was measured by spectroscopy (NanoDrop ND-1000; NanoDrop Technologies, Inc., Wilmington, Del.). cDNA was synthetized using 300 ng of template RNA using QuantiTect Reverse Transcription kit (Qiagen). qRT-PCR was performed using iTaq Universal SYBR Green Supermix (Biorad, Hercules, Calif.) and Eppendorf Mastercycler RealPlex 2 (Eppendorf, Hauppauge, N.Y.) with the primers described below. Relative mRNA levels were measured with ΔΔCT method.

sorted corneal pDCs = assay: Single cell PCR on sorted corneal pDCs stimulated in vitro; format: cell-based, mouse; conditions: 24 hours in vitro, 3 μg/ml
Experimental: as §2
(§3) 8-10 corneas of naïve DPE-GFP×RAG1^−/− mice were excised and digested to yield a single cell suspension as described for flow cytometry experiments. GFP-tagged pDCs were sorted via Moflo Cell Sorter (Beckman Coulter) into a 96-well plate (100 cell/well) and cultured for 24 hours in RPMI (Gibco) supplemented with 10% 10% FBS (Gemini Bioproducts), 1% penicillin/streptomycin (Life Technologies), as well as 3 μg/ml Imiquimod, CpG-ODN, or control ODN (all InvivoGen). RNA isolation and cDNA synthesis were performed via REPLI-g Cell WGA & WTA kit (Qiagen). qRT-PCR was performed as described earlier. In another set of experiments, 4-6 corneas of DPE-GFP×RAG1^−/− mice undergoing inoculation of 10 μg Imiquimod, 10 μg CpG-ODN, or control ODN were harvested 24 hours following inoculation; next, corneas were digested and GFP-tagged pDCs were sorted (100 cell/condition) and underwent single cell PCR.

corneal pDCs = assay: Ocular inoculation of TLR7 and 9 agonists, single cell PCR on sorted corneal pDCs; format: in vivo, mouse; conditions: 24 hours; for relative mRNA levels of NGF: 10 μg inoculated to cornea of DPE-GFP×RAG1−/− mice
Experimental: as §3
Following anesthetizing DPE-GFP×RAG1^−/− mice and application of topical proparacaine hydrochloride, central corneal epithelium was debrided using an Algerbrush II corneal rust ring remover with a 0.5-mm burr (Alger Equipment Co, Lago Vista, Tex.). 10 μg Imiquimod (TLR7 agonist; InvivoGen, San Diego, Calif.), 10 μg phosphorothioate CpG 1826 oligonucleotide (CpG-ODN; a synthetic TLR9 agonist; InvivoGen), or control oligonucleotide 1826 (Control ODN; InvivoGen) was topically administered on the eye. 24 hours later corneas were removed to sort corneal GFP-tagged pDCs and single cell PCR experiments.

[2] = test system: splenic pDCs (CD45+PDCA-1+CD45R/B220+); assay: Endostatin expression in pDCs of cultured splenic cells (flow cytometry); format: cell-based, mouse; conditions: splenic cells of C57BL/6 mice, 1 μg/ml, 24 hours
Experimental: Spleens of wildtype C57BL/6 mice were harvested and subjected to mechanical disruption. Samples were then filtered and underwent RBC lysis via incubation with ammonium chloride RBC lysis buffer (ACK; Biofluids, Rockville, Md.). Next, isolated splenic cells were cultured in RPMI supplemented with 10% heat-inactivated fetal bovine serum (FBS; Gemini Bioproducts, Woodland, Calif.), and 1% penicillin/streptomycin (Life Technologies, Carlsbad, Calif.). Cells were treated with 1 μg/ml Imiquimod (TLR7 agonist; InvivoGen, San Diego, Calif.), CpG-ODN (TLR9 agonist; InvivoGen), or PBS control for 24 hours. The experiment was done in triplicate.
After 24 hours of culture, isolated splenic cells were subjected to flow cytometry. In brief, cells were washed and then fixed and permeabilized using Foxp3/Transcription Factor Fixation/Permeabilization Reagent (eBioscience, San Diego, Calif.) according to the manufacturer's instructions. Cells were then washed twice with permeabilization buffer (eBioscience), blocked in 1% anti-CD16/CD32 FcR mAb at 4° C. in permeabilization buffer, and subsequently labeled with combinations of primary antibodies against CD45 (Biolegend, San Diego, Calif.), PDCA-1 (Biolegend), CD45R/B220 (Biolegend), Endostain (Abcam, Cambridge, Mass.) or their respective isotype controls for 30 minutes at 4° C. in the dark. After washing, cells were labeled with fluorochrome-conjugated anti-rabbit secondary antibody (for Endostatin) for 30 minutes at 4° C. All samples were washed and reconstituted in permeabilization before data acquisition with a BD LSR II flow cytometer (BD Biosciences). Data were analyzed with FlowJo V9.2 (FlowJo, LLC).

[3] = test system: trigeminal ganglion cells (TGCs); assay: Neurite outgrowth of TGCs in mono-culture or pDC co-culture with Imiquimod; format: cell-based, mouse; conditions: day 3
Experimental: Initially, 10-day old pups were euthanized, TGs were excised, chopped into small fragments, and digested in 2 mg/ml Collagenase D (Roche), 2 mg/ml DNAse I (Roche), and 5 mg/ml Dispase II (Sigma-Aldrich) in Hank's Balanced Salt Solution (Gibco) at 37° C. for 30 minutes. Next, after filtering, cells were layered over a 12.5% on 28% Percoll (GE Healthcare, Pittsburgh, Pa.) gradient in L15 media (Gibco) and centrifuged at 1300 g for 10 minutes. Following removing debris in the percoll interface, purified TGCs were recovered from the bottom of the gradient. Next, 10,000 cells/well were seeded in 24 well cell culture plates coated with growth factor reduced Matrigel (Corning Inc, Corning, N.Y.) in Ham's F-12 Nutrient Mix (Gibco) supplemented with 10% heat inactivated FBS (Gemini Bioproducts), 1% penicillin/streptomycin (Life Technologies) and 100 ng/ml NGF (Sigma-Aldrich). After one day of culture, media was changed to a similar media without NGF and sorted pDCs with different numbers were added to transwells. […] TGCs were used for RNA extraction and quantitative real-time PCR.
In another set of experiments, TGCs (10,000 cells/well) were cultured one day to adding 8,000 pDCs/well) to transwells. […] Neurite outgrowth was measured NeuronJ plugin (Meijering et al., Cytometry A 58(2):167-76, 2004) for ImageJ software (NIH, Bethesda, Md.).

sorted splenic pDCs [4] = assay: Phospho-CREB protein level in cultured splenic pDC lysates (Bio-Plex); format: cell-based, mouse; conditions: 3 days
Experimental: as §1
On day 3 following culture of sorted pDCs, cells were lysed via Bio-Plex Pro Cell Signaling Reagent Kit (Biorad) supplemented with phosphotase inhibitor cocktail (Roche) and phospho-CREB and β-actin levels were measured via phospho-CREB and β-actin Bio-Plex assays (Biorad) according to the manufacturer's instructions. Relative phospho-CREB to total β-actin protein levels were normalized to control group.

Compound | NGF relative mRNA level (sorted splenic pDCs [1]; splenic GFP-tagged pDCs, 3 days, 1, 5 and 10 μg/ml Imiquimod) | CREB relative mRNA level (sorted splenic pDCs [1]; splenic GFP-tagged pDCs, 3 days, different concentrations of Imiquimod) | relative NGF mRNA level (sorted splenic pDCs [1]; splenic pDCs, 1 μg/ml Imiquimod, 3 days) [fold increase] | CREB transcription (relative mRNA) (sorted corneal pDCs) | relative mRNA level of NGF (sorted corneal pDCs) | relative mRNA levels of NGF (corneal pDCs) [fold increase] | CREB mRNA level (corneal pDCs; ocular inoculation of 10 μg, vs control inoculation) | median fluorescent intensity of endostatin staining in pDCs [2] | percentage of endostatin-secreting pDCs [2] | neurite outgrowth in TGC mono-culture ([3]; TGCs alone, 1, 5 or 10 μg/ml Imiquimod) | neurite outgrowth in pDC and TGC co-culture ([3]; TGCs with 8,000 pDCs/well in transwells, 1, 5 or 10 μg/ml Imiquimod) | phosphorylation of CREB (phospho-CREB normalized to β-actin) (sorted splenic pDCs [4]; splenic pDCs, 1 μg/ml Imiquimod) [fold increase] | relative NGF mRNA level (sorted splenic pDCs [1]; splenic pDCs pre-treated 1 hour with 10 μM SB 203580, then 1 μg/ml Imiquimod, 3 days) [fold change] | phosphorylation of CREB (phospho-CREB normalized to β-actin) (sorted splenic pDCs [4]; splenic pDCs pre-treated 1 hour with 10 μM SB 203580, then 1 μg/ml Imiquimod, in comparison to control) [fold change]
CC(C)Cn1cnc2c(N)nc3ccccc3c21 [Imiquimod] | dose dependent increase | dose-dependent increase | 2.0±0.6 | increases transcription of CREB | 2.6±0.7 fold increase | 7.3±1.1 | higher CREB mRNA levels | increases | increases the percentage of endostatin-secreting | does not significantly enhance neurite outgrowth | enhances neurite outgrowth induced by pDCs | 3.8±1.5 |  | 
C[S+]([O-])c1ccc(-c2nc(-c3ccncc3)c(-c3ccc(F)cc3)[nH]2)cc1 (stereo not shown) [SB 203580] |  |  |  |  |  |  |  |  |  |  |  |  | 0.4±0.1 | 0.5±0.2
phosphorothioate CpG 1826 oligonucleotide [CpG-ODN] |  |  |  | does not result in significant escalation in CREB transcription | did not result in increased NGF mRNA transcription | 1.8±1.6 |  | increases | increases the percentage of endostatin-secreting |  |  |  |  | 
